Measurements taken from patent US11786542B2, “Methods for enhancing cytotoxic cancer therapy through modulation of purine biosynthesis pathways” (NORTHWESTERN UNIVERSITY, priority 2019, dated 2023).
Entries after “also recorded” stand apart in the source; their conditions may differ.

Tests used:
[1] = test system: IMPDH; details: cited from earlier work
[2] = in vivo; cited from earlier work
[3] = test system: orthotopic GBM43; assay: Orthotopic PDX GBM mouse model, endpoint survival, IMPDH inhibitor with TMZ; assay type: in vivo, Mice; details: for survival benefits in vivo and vitro models: mouse
Description: (§1) FIG. 10A-10C. […] A) Pictorial representation of cell viability post therapy. B) Cell viability measured by trypan blue exclusion method. C) Mice with orthotopic GBM43 treated with vehicle DMSO, TMZ 2.5 mg/kg for 5 days, MMF (20 mg/kg for 4 days and in combination and monitored by endpoint survival.
(§2) Glioblastoma, a universally lethal primary brain tumor, harnesses cellular plasticity to drive therapeutic adaptation. Critical factors in developing this plasticity are histone modifiers such as Polycomb Repressor Complex 2 protein EZH2. […] Concurrently, we observed an increase in H3K27ac at the transcription start site of ARL13B as well as a lack of H3K27 tri-methylation, EZH2's canonical histone mark. Based on this we hypothesize that EZH2 could be non-canonically regulating ARL13B to allow for cellular plasticity and ultimately drive therapeutic adaptation. […] Searching for a mechanism behind this survival benefit, we preformed mass spectrometry on an ARL13B pulldown in a patient derived xenograft line during TMZ therapy and identified inosine monophosphate dehydrogenase 2 (IMPDH2), the rate-limiting enzyme in de-novo guanine nucleotide biosynthesis, as a significant binding partner of ARL13B during TMZ chemotherapy (p-value<0.0001). Probing this novel interaction further we examined the de-novo and salvage purine biosynthesis pathways using radiolabeled carbon tracing experiments. […] This synthesis shift forces cells to uptake and incorporate purines that have been alkylated by TMZ therapy which increases DNA double strand breaks and ultimately impairs therapeutic adaptation.

[4] = test system: PDX GBM lines; assay: Cell viability of PDX GBM lines post therapy, trypan blue exclusion; assay type: cell-based; details: CellCept combined with TMZ
Description: as §1

[5] = test system: EAE and stroke; details: cited from earlier work
[6] = Blood-brain barrier crossing of the EZH2 inhibitor, orthotopic PDX model; assay type: in vivo
Excerpt: (§3) 2.1. […] One such epigenetic regulator is the Polycomb Repressor Complex 2 (PRC2), a critical family protein that is essential for maintaining the self-renewal ability of adult and embryonic stem cells^22, 23. This complex is involved in transcription silencing via chromatin compaction by catalyzing the methylation of the histone H3 at lysine 27. The catalytic subunit of the PRC2 complex, Enhancer Of Zeste 2 (EZH2), has been linked to aggressive progression of multiple cancers, including GBMs^24 25. The function of EZH2 is closely related to the cancer stem cell (CSC) phenotype, mesenchymal transition and radioresistance, which is associated with post-surgery relapse of GBM^24-26. However, its role in promoting chemoresistance properties in GBM is yet to be investigated. To this end, we have examined the role of the EZH2-PRC2 complex in promoting TMZ resistance.

[7] = test system: GBM flank model; assay: GBM flank model, tumor growth, EZH2 inhibitor plus TMZ; assay type: in vivo
Excerpt: FIG. 1A-1D. ARL13B is a downstream target for EZH2 non-canonical function. A) EZH2 expression is elevated during (day 3-D3) and post (D18) TMZ therapy. Therapy resistant glioma stem cell (CD133+) express high EZH2 post therapy (left). […] C) To examine the role of non-canonical function in TMZ resistance GBM43 (proneural) and GBM6 (Classical) PDX GBM treated with TMZ or TMZ+EZH2 inhibitor and subject to RNAseq analysis. […] We identified ARL13B as the top hit from this screen. D) shRNA mediated knockdown of EZH2 leads to downregulation of ARL13B.
as §3, with “To this end, we have examined the role of the EZH2-PRC2 complex in promoting TMZ resistance.” left out

[8] = test system: de novo pathway; assay: [14C]-glycine isotope tracing, de novo purine biosynthesis; assay type: cell-based; details: for de novo pathway activity during TMZ therapy: cells with endogenous ARL13B
Description: (§4) FIG. 4A-4E. IMPDH2-ARL13B interaction during TMZ therapy influences purine biosynthesis. A) Schematic diagram of purine biosynthesis. Isotope tracing analysis performed with ^14C glycine for de novo and ^3H hypoxanthine for salvage pathway. […] D)^14C glycine incorporation via de novo synthesis of the DNA and RNA with or without TMZ therapy in the presence and absence of ARL13B. U251 GBM cells were pulsed for 6 h with ^14C glycine, DNA and RNA were isolated, and ^14C incorporation was measured by […]. E) ^3H hypoxanthine incorporation via salvage pathway.
2.5. The ARL13B-IMPDH2 interaction during TMZ therapy alters the path to purine biosynthesis: IMPDH controls the gateway to purine nucleotides, by analyzing the rate-limiting reaction of de novo GTP biosynthesis at the inosine monophosphate (IMP) metabolic branch point^36 (FIG. 4A). This critical reaction appears to be present in every organism. Alternatively, purine bases, released by hydrolytic degradation of nucleic acids and nucleotides, can be salvaged and recycled. This is an energy-saving pathway for purine biosynthesis, and its inefficiency can result in many pathological conditions including Lesch-Nyhan syndrome^37. In cancer, rapid cell division results in a high demand for purine nucleotides that generally cannot be sustained by salvage pathways, which may explain the importance of IMPDH in cancer^14, 38. This information, combined with our finding of a direct interaction between ARL13B and IMPDH2 during TMZ therapy, allows us to postulate that such an interaction may be playing a role in regulation of purine biosynthesis pathway. To investigate further, we first performed [^14C]-glycine (de novo) and [^3H]-hypoxanthine (salvage) pulse-chase study during therapy, which allowed us to measure the activity of specific purine biosynthesis pathways^39 (FIG. 4A). […] Moreover, removal or ARL13B enhanced the salvage activity about 5-fold (FIG. 4E, p<0.0005). Based on this, we conclude that ARL13B may act as a negative regulator for the salvage pathway and is play a role in therapy-induced switch of the purine biosynthesis.

[9] = test system: IMPDH2; assay: IMPDH2 enzymatic activity, formazin reduction assay; assay type: biochemical; details: over 8 days of TMZ exposure (p<0.001)
Excerpt: as §2

[10] = test system: salvage pathway; assay: [3H]-hypoxanthine isotope tracing, salvage purine biosynthesis; assay type: cell-based; details: cells with endogenous ARL13B; listed as temozolomide
Description: as §4
2.5. The ARL13B-IMPDH2 interaction during TMZ therapy alters the path to purine biosynthesis: IMPDH controls the gateway to purine nucleotides, by analyzing the rate-limiting reaction of de novo GTP biosynthesis at the inosine monophosphate (IMP) metabolic branch point^36 (FIG. 4A). This critical reaction appears to be present in every organism. Alternatively, purine bases, released by hydrolytic degradation of nucleic acids and nucleotides, can be salvaged and recycled. This is an energy-saving pathway for purine biosynthesis, and its inefficiency can result in many pathological conditions including Lesch-Nyhan syndrome^37. In cancer, rapid cell division results in a high demand for purine nucleotides that generally cannot be sustained by salvage pathways, which may explain the importance of IMPDH in cancer^14, 38. […]

[11] = patients; cited from earlier work
[12] = test system: Glioblastoma (GBM); details: combined with radiotherapy after surgery; cited from earlier work
[13] = test system: ARL13B knocked out GBM lines; assay: DNA damage by H2X foci in ARL13B knockout/knockdown GBM cells treated with TMZ; assay type: cell-based; details: ARL13B knockout/knockdown cells vs control cells, both exposed to TMZ
Description: (§5) FIG. 5A-5D. Removal of ARL13B sensitizes GBM to TMZ therapy. […] B) Quantitative measure of H2X foci of different conditions counted in 100 cells. C) and D) shRNA mediated knockdown of ARL13B PDX lines were implanted in the nu/nu mice intracranially. After tumor establishment (7 days post implantation measured by BLI) animals were treated with suboptimal dose of TMZ (2.5 mg/kg) for 5 consecutive days. Animals were monitored for endpoint survival. C) GBMS PDX which is a mesenchymal subtype and D) GBM6, a classical subtype.
Creation of this alkylated purine causes a base pair mismatch in DNA (G-T) which results in DNA damage and cell cycle arrest and apoptosis (PMID: 15322239). Because of the nature of temozolomide chemotherapy-induced DNA damage, we chose to examine whether or not salvage pathway synthesis carried an implicit sensitivity to this alkylating chemotherapy. […] However, it did decrease the utilization of the salvage pathway by roughly 50%. Next, we subjected our ARL13B knockout cells to a standard dose of Temozolomide chemotherapy and checked whether they had more DNA double-stranded breaks by utilizing gamma h2ax foci counting. […]
2.6. […] After tumor engraftment animals were treated with vehicle control or TMZ (2.5 mg/kg) for 5 consecutive days and animals were monitored by endpoint survival. […]

[14] = test system: ARL13B knockdown PDX GBM (GBM5, GBM6); assay: Intracranial ARL13B knockdown PDX xenografts treated with TMZ, endpoint survival; assay type: in vivo, nu/nu mice; details: TMZ 2.5 mg/kg for 5 days
Description: as §5
2.6. ARL13B KD enhances the therapeutic efficacy of TMZ both in vitro and in vivo: The monofunctional DNA-alkylating agent TMZ is a commonly used chemotherapeutic drug and the gold standard of treatment for GBM. Although the activity of the DNA repair enzyme O6-methylguanine-DNA methyltransferase (MGMT) has been identified as the critical modulator to determine the GBM sensitivity to TMZ, all GBMs, even those with MGMT inactivation, eventually stop responding to TMZ. This begs question whether an alternative mechanism of resistance may be involved in GBM. The anti-GBM activity of TMZ is predominately provoked by O6-methylguanine-DNA adducts. […] After tumor engraftment animals were treated with vehicle control or TMZ (2.5 mg/kg) for 5 consecutive days and animals were monitored by endpoint survival. […]

Q: For `CC[C@H](CC#N)OC(=O)N[C@@H](C)c1cccc(NC(=O)Nc2ccc(-c3cnco3)c(OC)c2)c1` [AVN944], which “IMPDH activity as compared to CellCept” value [1] is on record?
A: enhanced IMPDH activity as compared to CellCept

Q: What does the source list for `COc1c(C)c2c(c(O)c1C/C=C(\C)CCC(=O)OCCN1CCOCC1)C(=O)OC2` [CellCept, mycophenolic mofetil]?
A: crossing of the blood-brain barrier (BBB) [2]: ability to cross the blood-brain barrier; therapeutic efficacy of TMZ-based chemotherapy, animal model ([3]; CellCept combined with TMZ, PDX model (FIG. 10)): corporation between CellCept and TMZ; also recorded: significantly improved the therapeutic efficacy of TMZ-based anti-GBM chemotherapy; survival benefits in vivo and vitro models [3]: robust survival benefits; median survival ([3]; orthotopic PDX mouse model, only when in combination with TMZ (p<0.01)): significantly extended median survival; sensitization to TMZ therapy in vitro [4]: sensitizes PDX GBM lines to TMZ therapy; also recorded: significantly improved the therapeutic efficacy of TMZ-based anti-GBM chemotherapy; neuroprotection against inflammatory conditions [5]: promoted neuroprotection

Q: With `CCCc1cc(C)[nH]c(=O)c1CNC(=O)c1cc(-c2ccc(N3CCN(C(C)C)CC3)nc2)cc2c1cnn2C(C)C` [EZH2 inhibitor] as the compound, how does the “crossing of the blood-brain barrier” value [6] read?
A: failed to cross the blood-brain barrier

Q: What about the “tumor growth / therapeutic efficacy of TMZ in flank model” value [7] of the same compound?
A: can block the tumor growth; also recorded: significantly enhanced the therapeutic efficacy of TMZ

Q: For `NC(=O)c1ncn([C@@H]2O[C@H](CO)[C@@H](O)[C@H]2O)c1O` [Mizoribine, mizoribine], which “survival benefits in vivo and vitro models” value [3] is on record?
A: robust survival benefits

Q: Which results are given for `Cn1nnc2c(C(N)=O)ncn2c1=O` [TMZ, 3,4-dihydro-3methyl-4-oxoimidazo[5,1-d]-1,2,3,5-tetrazine-8-carboxamide]?
A: decrease of de novo pathway usage in a TMZ specific manner ([8]; ARL13B knockdown / removal): about 50%; de novo pathway activity in a TMZ-specific manner ([8]; ARL13B knocked-out cells): inhibited in a TMZ-specific manner; also recorded: reduced significantly in a TMZ-specific manner; de novo pathway activity during TMZ therapy [8]: remained unchanged; also recorded: did not alter the de novo synthesis pathway; de novo pathway activity during TMZ therapy ([8]; listed as temozolomide): did not statistically change; IMPDH2 enzymatic activity [9]: decrease in activity; decrease of salvage pathway activity during TMZ therapy [10]: roughly 50%; peak cerebral spinal fluid and serum concentrations [11]: 50 µM; improvement of overall survival time [12]: 4-6 months; DNA damage / double-strand breaks (H2X foci) [13]: robust increase in DNA double-strand breaks; also recorded: significantly elevated DNA damage; DNA damage / double-strand breaks (H2X foci) ([13]; listed as Temozolomide): significantly more foci; improvement in overall survival compared to control ([14]; classical subtype GBM6, ARL13B KD): 39%; animals that did not develop any tumor ([14]; mesenchymal subtype, ARL13B KO GBM): 80%
